# Data taken from patent US11819492B2, “Natural product derivatives for inhibiting cellular necroptosis, ferroptosis and oxytosis” (Institut National de la Sante et de la Recherche Medicale …, priority 2016, dated 2023).
# How the values were obtained:
# [1] = system: Murine hippocampal neuronal cell line HT22; assay: Erastin-induced ferroptosis in HT22 cells, MTS viability assay; format: cell-based; settings: 1 μM erastin, 24 hours, FIG. 14
# Description: (§1) Murine hippocampal neuronal cell line HT22 was treated with 10 mM of (L)-glutamate (oxytosis initiator) or 1 μM erastin (ferroptosis initiator).
# (§2) Cells were then incubated at 37° C., 5% CO2 for 24 hours before performing MTS viability assay. Cell viability was monitored using CellTiter 96® AQueous Non-Radioactive Cell Proliferation Assay (Promega, Fitchburg, WI, USA), based on the water-soluble tetrazolium compound MTS (3-[4,5-dimethylthiazol-2-yl]-5-[3-carboxymethoxy-phenyl]-2-[4-sulfophenyl]-2H-tetrazolium, inner salt) according to the manufacturers instructions.
# [2] = system: Human endothelial cells (HAEC); assay: In vitro hypoxic cold storage viability assay; format: cell-based
# Description: Human endothelial cells (HAEC) were grown to confluence, then synchronized using depleted media for 16h. For hypothermia/hypoxia, cells were washed twice with PBS then incubated in University of Wisconsin (UW) solution in 95% N2/5% CO2 atmosphere at 4° C. for 24 hours. […] Shown are mean+/−SD, n=3. UW are cells treated only with UW preservation solution. Controls are cells not subjected to this protocol (cells are continuously oxygenated) but cultivated for the same amount of time in regular culture conditions. […] It should be noted that the hypoxic cold storage mimics the process occurring during graft preservation.
# [3] = target: T1, Human RIPK1 full length GST-tagged (Homo sapiens, UniProt Q13546); assay: RIPK1 autophosphorylation assay; format: biochemical
# T1 construct: Human RIPK1 full length GST-tagged; made in house; host or cells: Sf9 insect cells (baculovirus, Bac-to-Bac)
# T1 sequence (Q13546 1-671): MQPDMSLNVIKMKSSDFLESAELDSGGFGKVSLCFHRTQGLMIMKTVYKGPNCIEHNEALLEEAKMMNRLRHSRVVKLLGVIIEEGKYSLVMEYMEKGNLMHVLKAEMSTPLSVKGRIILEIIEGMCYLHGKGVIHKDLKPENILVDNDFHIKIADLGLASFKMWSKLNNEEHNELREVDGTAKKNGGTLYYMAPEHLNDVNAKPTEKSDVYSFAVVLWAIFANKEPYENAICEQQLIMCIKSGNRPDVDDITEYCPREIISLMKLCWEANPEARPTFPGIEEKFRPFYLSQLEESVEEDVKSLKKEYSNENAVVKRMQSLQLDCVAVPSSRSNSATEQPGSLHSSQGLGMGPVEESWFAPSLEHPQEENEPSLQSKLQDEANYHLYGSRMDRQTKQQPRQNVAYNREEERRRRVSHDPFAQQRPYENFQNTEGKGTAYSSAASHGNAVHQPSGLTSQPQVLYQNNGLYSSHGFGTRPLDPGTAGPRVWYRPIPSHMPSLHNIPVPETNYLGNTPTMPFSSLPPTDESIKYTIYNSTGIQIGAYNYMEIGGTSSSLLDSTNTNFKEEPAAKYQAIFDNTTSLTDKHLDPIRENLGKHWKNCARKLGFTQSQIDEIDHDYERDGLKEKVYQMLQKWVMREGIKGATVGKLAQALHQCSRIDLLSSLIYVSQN
# Description: RIPK1 Autophosphorylation Assay: • Human RIPK1 full length GST-tagged was baculovirally expressed in Sf9 cells according to manufacturer's instructions (Bac-to-Bac expression system, Invitrogen) and purified using gluthation-sepharose beads (GE Healthcare). The elution was made in 50 mM Tris-HCl, pH 8.0 buffer supplemented with 30 mM reduced gluthathione (Sigma). The protocol used to detect the enzymatic activity is adapted from Miao and Degterev (Methods Mol. Biol. 2009, 559, 79-93). Kinase reaction was initiated mixing 5 μl of eluted RIPK1, 5 μl of 3X kinase reaction buffer (5 mM MOPS pH 7.2, 2.5 mM β-glycerophosphate, 4 mM MgCl2, 2.5 mM MnCl2, 1 mM EGTA, 0.4 mM EDTA, 50 μg/ml BSA, 0.05 mM DTT), 2 μl H2O and 3 μl of the tested molecule. The mixture was kept on ice for 10 minutes. […] ATP. The ATP solution and the tested inhibitor were added to the kinase and incubated for 30 minutes at 30° C. To stop the enzymatic reaction, 5 μl of loading buffer were added and solution was heated for 3 minutes at 95° C. 25 μl of each reaction were loaded per well in pre-cast NuPage 12% Bis-Tris gel (Life Technology). Necrostatin-1, a well-described inhibitor of RIPK1, was used as an internal control. Coomassie staining was performed in order to estimate the total amount of protein loaded on polyacrylamide gel. […]
# [4] = target: T2, RIPK1 (Homo sapiens, UniProt Q13546); assay: KINOMEscan Max competition binding assay, RIPK1; settings: RIPK1, FIG. 8
# T2 construct: DNA tag (qPCR read-out); purchased DiscoveRx Corporation, Fremont, USA (assay service)
# T2 sequence (Q13546 1-671): T1 sequence (Q13546 1-671)
# Description: This experimental approach quantitatively measures the ability of a compound to compete with an immobilized, active-site directed ligand. […] The ability of compound 1 to compete with the immobilized ligand is measured via quantitative PCR of the DNA tag. The codes reported on the FIG. 8 indicate the subclasses of protein kinases: CMGC for CDKs, MAP kinases, GSK and CDK-like kinases; AGC for Protein kinase A, G, and C families (PKA, PKC, PKG); CAMK for Ca2+/calmodulin-dependent protein kinases; CK1, Cell Kinases 1 (originally known as Casein Kinase 1); STE, STE Kinases (Homologs of yeast STErile kinases); TKL, Tyrosine Kinases-Like; TK, Tyrosine Kinases. Each kinase tested in the assay panel is marked with a circle. The hit kinase reported, RIPK1, is marked with a black circle.
# [5] = system: Murine hippocampal neuronal cell line HT22; assay: L-glutamate-induced oxytosis in HT22 cells, MTS viability assay; format: cell-based; settings: 10 mM L-glutamate, 24 hours, FIG. 14
# Description: as §1, §2
# [6] = system: Jurkat FADD-deficient I 2.1 cells; assay: Hallmarks of TNF-α-induced necroptosis (plasma membrane permeabilization, intracellular ATP) in Jurkat FADD-deficient cells; format: cell-based, human; settings: 0-50 μM, TNF-α 10 ng/ml, 24 hours
# Description: Cells untreated by TNF-α are used as control (light grey curves). Cells were incubated at 37° C., 5% CO2 for 24 hours before performing the measurements of both plasma membrane permeabilization and intracellular ATP levels. Dead cells were detected by FACS analysis of Propidium Iodide-stained nuclei (FIG. 2). ATP Quantification is performed using the CellTiter-Glo® Luminescent Cell Viability Assay. The luminescent signal produced by a luciferase reaction is proportional to the amount of ATP present and the amount of ATP is directly proportional to the number of metabolically active cells (n=4) (FIG. 3).
smiles,measurement,setting,value
COc1cc(O)c2c(c1)OC(O)(c1ccc(OCc3ccccc3)cc1)CC2=O (stereo not shown) [compound 1],concentration that protects cells from death induced by erastin,[1],> 25 µM
same,"cell survival, treatment during hypoxia","[2]; UW solution, 95% N2/5% CO2, 4° C., 24 hours, FIG. 10",measurable benefits on cell survival
same,"cell survival, treatment during hypoxia and reoxygenation","[2]; UW solution, 95% N2/5% CO2, 4° C., 24 hours, then reoxygenation, FIG. 11",measurable benefits on cell survival
same,effect on cell survival compared to the control inhibitors of necroptosis (Nec-1 and Nec-1s),[2]; hypoxic cold storage,significantly better
same,inhibition of RIPK1 autophosphorylation,"[3]; [γ-32P] ATP, 30 minutes at 30° C., FIG. 6",inhibits the RIPK1 autophosphorylation in a dose-dependent way
same,effect of high ATP concentrations on inhibition of RIPK1 auto-phosphorylation,"[3]; high ATP concentrations (e.g. 1 mM), FIG. 7",not affected
same,initial amount of kinase still on the affinity matrix after competition,[4],0.15%
same,concentration that protects cells from death induced by L-glutamate,[5],> 25 µM
same,"plasma membrane permeabilization induced by TNF-α (Propidium Iodide, FACS)",[6]; FIG. 2,inhibits
same,ATP depletion induced by TNF-α (CellTiter-Glo),[6]; FIG. 3,inhibits
